{"source": "patent US20250382261A1", "about": "(The Broad Institute, Inc., priority 2021, published 2025)", "key": {"[1]": {"test_system": "K. pneumoniae (ATCC 43816, expressing pGDP2:mcr-1)", "assay": "Checkerboard potentiation assay with novobiocin, mcr-1 strain", "assay_type": "cell-based", "conditions": "mcr-1 expressing K. pneumoniae"}, "[2]": {"assay": "in vitro", "conditions": "human"}, "[3]": {"test_system": "P. aeruginosa (PA01)", "assay": "Checkerboard potentiation assay with novobiocin", "assay_type": "cell-based", "description": "(§1) Bacterial strains and culture conditions. The following bacterial strains were used within this study; A. baumannii (ATCC 17978), K. pneumoniae (ATCC 43816), K. pneumoniae (ATCC 43816, expressing pGDP2:mcr-1), P. aeruginosa (PA01). Bacterial growth was in cation-adjusted Mueller-Hinton broth (MHB) at 37° C., and inoculum was prepared according to CLSI protocol (CLSI 2015).\n(§2) Potentiation assays. Checkerboard analyses were conducted with each drug serially diluted at eight concentrations to create an 8×8 matrix. At least two biological replicates were done for each combination, and the means were used for FIC calculation. The FIC for each drug was calculated by dividing the concentration of the drug in the presence of codrug in a combination for a well showing <10% growth by the MIC for that drug alone. The FIC index (FICI) is the sum of the two FICs, with an FIC index≤0.5 deemed synergistic.\n(§3) To probe the spectrum of activity of the present analogs beyond A. baumannii, their interactions with novobiocin were assessed against the high-priority Gram-negative pathogens Klebsiella pneumoniae and P. aeruginosa (FIG. 5)."}, "[4]": {"test_system": "K. pneumoniae (ATCC 43816)", "assay": "Checkerboard potentiation assay with novobiocin", "assay_type": "cell-based", "description": "as §1, §2, §3"}}}
{"molecule": "N=C(N)c1ccc(OCCN(CCOc2ccc(C(=N)N)cc2)c2ccccc2)cc1", "note": "[Analog P35]", "values": [{"measurement": "FICI with novobiocin against K. pneumoniae expressing mcr-1", "setting": "[1]", "result": 0.12}, {"measurement": "AC50 at 72 h", "setting": "[2]; HepG2 viability / cell cycle arrest AC50", "result": 14.5, "unit": "µM"}, {"measurement": "AC50 at 72 h", "setting": "[2]; Nuclear Size AC50 (μM)", "result": 94.5, "unit": "µM"}, {"measurement": "AC50 at 72 h", "setting": "[2]; Phospholipidosis AC50 (μM)", "result": 43.1, "unit": "µM"}, {"measurement": "FICI PA", "setting": "[3]", "result": 0.3125}, {"measurement": "FICI KP", "setting": "[4]", "result": 0.12}]}
